Assay results: the NIST ThermoML archive (doi:10.1021/acs.jced.8b00537)
Numbers after ± are expanded uncertainties.

Assay: xn = mol fraction of the nth substance listed
Details: 100 kPa, Liquid; for viscosity: Capillary tube (Ostwald / Ubbelohde) method; for speed of sound: Frequency=3 MHz, Single path-length method; for mass density: Vibrating tube method

O=S(=O)([N-]S(=O)(=O)C(F)(F)F)C(F)(F)F.On1cc[n+](O)c1 [1,3-dihydroxyimidazolium bis(trifluoromethylsulfonyl)imide] + CCCO
Details	mass density [kg/m3]	speed of sound [m/s]	viscosity [mPa·s]
293.15 K, x1 = 0.0999	1039 ± 2	1192.5 ± 6	6.428 ± 0.52
293.15 K, x1 = 0.1994	1207 ± 3	1175.2 ± 6	10.56 ± 0.85
293.15 K, x1 = 0.2993	1333 ± 3	1166.5 ± 6	18.74 ± 1.5
293.15 K, x1 = 0.3992	1430 ± 3	1167 ± 6.1	31.05 ± 2.5
293.15 K, x1 = 0.4985	1510 ± 3	1170.2 ± 6.1	46.71 ± 3.8
293.15 K, x1 = 0.5999	1576 ± 3	1175.3 ± 6.1	65.75 ± 5.3
293.15 K, x1 = 0.6989	1631 ± 4	1182.6 ± 6.2	99.34 ± 8.1
293.15 K, x1 = 0.7996	1680 ± 4	1190.1 ± 6.2	120.22 ± 9.8
293.15 K, x1 = 0.8973	1719 ± 4	1198.4 ± 6.3	184.26 ± 15
293.15 K, x1 = 1	1746 ± 4	1208.2 ± 6.3	238.6 ± 20
298.15 K, x1 = 0.0999	1034 ± 2	1177.8 ± 6	5.606 ± 0.45
298.15 K, x1 = 0.1994	1202 ± 3	1161.9 ± 6	9.087 ± 0.73
298.15 K, x1 = 0.2993	1328 ± 3	1154 ± 6	15.55 ± 1.2
298.15 K, x1 = 0.3992	1425 ± 3	1155 ± 6.1	25.3 ± 2
298.15 K, x1 = 0.4985	1505 ± 3	1158.3 ± 6.1	37.27 ± 3
298.15 K, x1 = 0.5999	1570 ± 3	1163.5 ± 6.1	51.4 ± 4.1
298.15 K, x1 = 0.6989	1625 ± 4	1171 ± 6.2	76.1 ± 6.1
298.15 K, x1 = 0.7996	1674 ± 4	1178.4 ± 6.2	90.44 ± 7.3
298.15 K, x1 = 0.8973	1713 ± 4	1186.7 ± 6.3	135.12 ± 11
298.15 K, x1 = 1	1740 ± 4	1196.6 ± 6.3	171.83 ± 14
303.15 K, x1 = 0.0999	1030 ± 2	1163.2 ± 6	4.921 ± 0.4
303.15 K, x1 = 0.1994	1197 ± 3	1148.7 ± 6	7.864 ± 0.63
303.15 K, x1 = 0.2993	1323 ± 3	1141.6 ± 6	13.07 ± 1
303.15 K, x1 = 0.3992	1419 ± 3	1143.1 ± 6.1	20.93 ± 1.7
303.15 K, x1 = 0.4985	1499 ± 3	1146.7 ± 6.1	30.21 ± 2.4
303.15 K, x1 = 0.5999	1564 ± 3	1152 ± 6.1	40.94 ± 3.3
303.15 K, x1 = 0.6989	1620 ± 4	1159.5 ± 6.2	59.33 ± 4.8
303.15 K, x1 = 0.7996	1668 ± 4	1166.9 ± 6.2	–
303.15 K, x1 = 0.8973	1707 ± 4	1175.2 ± 6.3	101.71 ± 8.3
303.15 K, x1 = 1	1735 ± 4	1185.2 ± 6.3	127.52 ± 10
308.15 K, x1 = 0.0999	1025 ± 2	1148.9 ± 6	4.34 ± 0.35
308.15 K, x1 = 0.1994	1192 ± 3	1135.7 ± 6	6.844 ± 0.55
308.15 K, x1 = 0.2993	1318 ± 3	1129.4 ± 6	11.09 ± 0.89
308.15 K, x1 = 0.3992	1414 ± 3	1131.4 ± 6.1	17.59 ± 1.4
308.15 K, x1 = 0.4985	1494 ± 3	1135.2 ± 6.1	24.91 ± 2
308.15 K, x1 = 0.5999	1559 ± 3	1140.7 ± 6.1	33.19 ± 2.7
308.15 K, x1 = 0.6989	1614 ± 4	1148.3 ± 6.2	47.17 ± 3.8
308.15 K, x1 = 0.7996	1662 ± 4	1155.7 ± 6.2	54.77 ± 4.4
308.15 K, x1 = 0.8973	1702 ± 4	1164 ± 6.3	78.32 ± 6.3
308.15 K, x1 = 1	1729 ± 4	1174.1 ± 6.3	96.92 ± 7.9
313.15 K, x1 = 0.0999	1020 ± 2	1134.6 ± 6	3.849 ± 0.31
313.15 K, x1 = 0.1994	1187 ± 3	1122.8 ± 6	5.991 ± 0.48
313.15 K, x1 = 0.2993	1313 ± 3	1117.3 ± 6	9.541 ± 0.76
313.15 K, x1 = 0.3992	1409 ± 3	1119.8 ± 6.1	14.92 ± 1.2
313.15 K, x1 = 0.4985	1489 ± 3	1123.9 ± 6.1	20.85 ± 1.7
313.15 K, x1 = 0.5999	1553 ± 3	1129.5 ± 6.1	27.38 ± 2.2
313.15 K, x1 = 0.6989	1608 ± 3	1137.2 ± 6.2	37.93 ± 3.1
313.15 K, x1 = 0.7996	1657 ± 4	1144.6 ± 6.2	43.92 ± 3.5
313.15 K, x1 = 0.8973	1696 ± 4	1153 ± 6.3	61.38 ± 4.9
313.15 K, x1 = 1	1723 ± 4	1163.1 ± 6.3	75.56 ± 6.1
318.15 K, x1 = 0.0999	–	1120.5 ± 6	3.434 ± 0.28
318.15 K, x1 = 0.1994	–	1110.1 ± 6	5.275 ± 0.42
318.15 K, x1 = 0.2993	–	1105.4 ± 6	8.279 ± 0.66
318.15 K, x1 = 0.3992	–	1108.3 ± 6.1	12.81 ± 1
318.15 K, x1 = 0.4985	–	1112.7 ± 6.1	17.64 ± 1.4
318.15 K, x1 = 0.5999	–	–	22.86 ± 1.8
318.15 K, x1 = 0.6989	–	–	31.31 ± 2.5
318.15 K, x1 = 0.7996	–	–	35.76 ± 2.9
318.15 K, x1 = 0.8973	–	–	49.13 ± 4
318.15 K, x1 = 1	–	–	59.8 ± 4.8
